Laboratory results as given in the NIST ThermoML archive (doi:10.1021/je100615j).

Test: mn = molality of the nth substance listed, in mol/kg
Details: 101.3 kPa, Liquid, Vibrating tube method

O=[N+]([O-])[O-].O=[N+]([O-])[O-].O=[N+]([O-])[O-].[Ce+3] [cerium nitrate] + O
mass density [kg/m3]
Details	m1 = 0.5112	m1 = 1.031	m1 = 1.555	m1 = 1.997	m1 = 3.131	m1 = 3.968	m1 = 4.462
293.15 K	1131.2	1252.8	1361.9	1446.2	1633.2	1746.4	1806
298.15 K	1129.3	1250.2	1358.8	1443.1	1629.1	1742.4	1801.8
308.15 K	1124.7	1244.4	1352	1435.7	1620.5	1733.1	1792.2

O=[N+]([O-])[O-].O=[N+]([O-])[O-].O=[N+]([O-])[O-].[Nd+3] [neodymium(III) nitrate] + O
mass density [kg/m3]
Details	m1 = 0.522	m1 = 1.021	m1 = 1.555	m1 = 2.093	m1 = 3.086	m1 = 4.124	m1 = 4.297
293.15 K	1136.1	1255.1	1369.8	1474.7	1642.1	1785.9	1807
298.15 K	1134.2	1252.5	1366.7	1471.1	1637.8	1781.1	1802.7
308.15 K	1129.6	1246.7	1359.9	1463.5	1628.8	1771.4	1792.8

O=[N+]([O-])[O-].O=[N+]([O-])[O-].O=[N+]([O-])[O-].[Y+3] [yttrium nitrate] + O
mass density [kg/m3]
Details	m1 = 0.4989	m1 = 0.9965	m1 = 1.497	m1 = 1.982	m1 = 2.947	m1 = 3.945	m1 = 4.957
293.15 K	1105.5	1202.6	1290.8	1368.7	1502.8	1615.7	1708.9
298.15 K	1103.5	1200.2	1287.8	1365.4	1498.9	1611.4	1704.3
308.15 K	1099.2	1194.7	1281.4	1358.2	1490.5	1602.2	1694.7
